According to publication PMC3005334 (Cell, 2010):

Legend:
[1] = test system: 21 ergosterol biosynthetic proteins (Erg proteins); conditions: of 21 Erg enzymes, above the control
Erg1 = molecular target: T1, Erg1 (Saccharomyces cerevisiae, UniProt P32476); format: binding; conditions: in vivo bound, LC-MS
T1 sequence (P32476 1-496): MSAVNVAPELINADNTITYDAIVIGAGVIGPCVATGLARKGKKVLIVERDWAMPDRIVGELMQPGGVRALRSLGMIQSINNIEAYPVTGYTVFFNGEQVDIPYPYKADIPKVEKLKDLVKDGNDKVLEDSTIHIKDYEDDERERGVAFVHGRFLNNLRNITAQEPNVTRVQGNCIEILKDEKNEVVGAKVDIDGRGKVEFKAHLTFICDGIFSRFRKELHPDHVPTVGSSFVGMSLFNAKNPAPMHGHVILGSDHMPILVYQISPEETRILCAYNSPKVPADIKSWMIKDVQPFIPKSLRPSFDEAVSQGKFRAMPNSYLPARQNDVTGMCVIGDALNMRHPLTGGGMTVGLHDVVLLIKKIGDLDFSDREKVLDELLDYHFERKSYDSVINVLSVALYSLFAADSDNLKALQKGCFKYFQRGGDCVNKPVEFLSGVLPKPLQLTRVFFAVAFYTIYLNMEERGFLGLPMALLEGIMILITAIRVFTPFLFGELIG

Erg3 = molecular target: T2, Erg3 (Saccharomyces cerevisiae, UniProt P32353); format: binding; conditions: in vivo bound, LC-MS; known substrate
T2 sequence (P32353 1-365): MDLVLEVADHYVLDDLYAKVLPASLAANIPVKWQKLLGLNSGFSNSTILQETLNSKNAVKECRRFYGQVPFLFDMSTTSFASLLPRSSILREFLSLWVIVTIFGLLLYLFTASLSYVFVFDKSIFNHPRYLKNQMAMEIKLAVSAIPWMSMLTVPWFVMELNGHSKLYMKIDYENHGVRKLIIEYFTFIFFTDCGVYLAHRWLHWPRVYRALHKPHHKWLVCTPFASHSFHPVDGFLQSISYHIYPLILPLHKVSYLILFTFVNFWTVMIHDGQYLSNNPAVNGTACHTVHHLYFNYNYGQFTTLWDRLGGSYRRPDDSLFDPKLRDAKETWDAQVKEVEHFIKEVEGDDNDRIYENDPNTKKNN

ypk1Δ cells [2] = test: Growth of kinase deletion strain in the presence of ergosterol inhibitor; format: cell-based, Saccharomyces cerevisiae; conditions: different concentrations of inhibitor, cell density
ypk1Δ cells [3] = conditions: ref Gupta et al., 2003; Hillenmeyer et al., 2008; cited from earlier work

Question: With CC(C)=CCC[C@@H](C)[C@H]1CC[C@@]2(C)C3=C(CC[C@]12C)[C@@]1(C)CC[C@H](O)C(C)(C)[C@@H]1CC3 [lanosterol] as the compound, how does the “number of Erg proteins the metabolite co-purified with” value [1] read?
Answer: 5

Question: Which “association with Erg1 among the 21 Erg proteins” value (Erg1) does the source give for CC(C)=CCC[C@@H](C)[C@H]1CC[C@H]2C3=C(CC[C@]12C)[C@@]1(C)CCC(=O)C[C@@H]1CC3 [5α-cholesta-8,24-dien-3-one] here?
Answer: specifically associated only with Erg1

Question: For CC(C)=CCC/C(C)=C/CC/C(C)=C/CC/C=C(\C)CC/C=C(\C)CC[C@@H]1OC1(C)C [(S)-2,3-epoxysqualene], which “association with Erg1 among the 21 Erg proteins” value (Erg1) is on record?
Answer: specifically associated only with Erg1

Question: What does the source list for C=C(CC[C@@H](C)[C@H]1CC[C@H]2C3=CC[C@H]4C[C@@H](O)CC[C@]4(C)[C@H]3CC[C@]12C)C(C)C [episterol]?
Answer: binding to Erg3 (Erg3): bound; number of Erg proteins the metabolite co-purified with [1]: 3

Question: Which results are given for C[C@@H]1[C@H](O)[C@@H](C)/C=C/C=C/CC/C=C/C=C/C=C/C=C/C(O[C@H]2O[C@H](C)[C@@H](O)[C@H](N)[C@@H]2O)CC2O[C@](O)(CC(O)C(O)CCC(O)CC(O)CC(O)CC(=O)O[C@H]1C)CC(O)C2C(=O)O (stereo partly shown) [nystatin]?
Answer: growth of ypk1Δ cells (ypk1Δ cells [2]): sensitive; sensitivity of yeast strains lacking Ypk1 (ypk1Δ cells [3]): sensitive
